Reference: patent US11903386B2, “Strigolactone analogs and their usage in plant control” (King Abdullah University of Science and Technology, priority 2016, dated 2024)

Columns and labels:
parasite seed = conditions: in vivo; cited from earlier work
Orobanche ramosa = conditions: tobacco field; cited from earlier work
S. hermonthica = conditions: in vivo; cited from earlier work
P. ramosa = conditions: in vivo; cited from earlier work
ShHTL7 [1] = biological target: T1, ShHTL7 (Striga hermonthica, UniProt A0A0M3PNA2); assay: Intrinsic tryptophan fluorescence assay; format: binding; conditions: ShHTL7 10 μM, mean±SE (n=3); read-out: Kd, affinity of ShHTL7
T1 sequence (A0A0M3PNA2 1-271): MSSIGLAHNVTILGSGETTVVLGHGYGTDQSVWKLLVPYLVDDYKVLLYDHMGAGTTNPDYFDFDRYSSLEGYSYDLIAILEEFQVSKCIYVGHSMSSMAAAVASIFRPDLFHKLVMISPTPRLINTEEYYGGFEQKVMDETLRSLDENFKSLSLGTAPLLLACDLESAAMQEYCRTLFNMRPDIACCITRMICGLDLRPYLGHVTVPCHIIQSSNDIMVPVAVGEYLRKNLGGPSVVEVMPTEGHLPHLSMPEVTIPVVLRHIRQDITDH
From the text: (§1) Striga hermonthica ShHTL7 cDNA, GenBank accession KR013127 was kindly provided by Prof. Tadao Asami (The University of Tokyo, Japan). Arabidopsis thaliana D14 (AtD14) cDNA, GenBank accession AY097402 was synthesized and cloned into pUC57 (GenScript). ShHTL7 and OsD14 cDNAs were amplified by RT-PCR using the primers shown in Table 2, digested with BamHI and XhoI, and ligated into BamHI/XhoI digested pGEX-6P-1 expression vector (GE Healthcare). Integrity of plasmids was confirmed by sequencing (KAUST Bioscience Core Lab). The plasmids were then transformed into E. coli BL21 (DE3) cells. The cells were grown in LB broth containing ampicillin ([…]), incubated at 37° C. until OD600 of 0.6 and induced with 0.1 mM isopropyl-β-D-thiogalactopyranoside (IPTG) at 16° C. for 16 h. Harvested cells were re-suspended in lysis buffer: 50 mM Tris-HCl (pH 8.0), 200 mM NaCl, 0.5% Tween-20 and 2 mM dithiothreitol (DTT). After sonication on ice for 10 mins, the lysate was centrifuged at 25,000 rpm for 30 min at 4° C. Supernatant was allowed to bind to glutathione-sepharose beads (GE Healthcare) for 2 h at 4° C., washed 3 times with buffer (50 mM Tris-HCl (pH 8.0), 200 mM NaCl, 2 mM DTT), and eluted by cleaving GST moiety with PreScission™ Protease (GE Healthcare) at 4° C. overnight. Eluted protein was further purified by gel filtration using HiLoad 16/60 Superdex200 prep grade column (GE Healthcare) on an AKTA prime system (GE Healthcare) in gel filtration buffer (10 mM HEPES pH 7.5, 50 mM KCl and 2 mM DTT). Protein eluted as a sharp single peak and purity was judged by 4-15% SDS-PAGE (Bio-Rad). Purified protein was concentrated using an Amicon 10K filter unit (Merck Millipore) and stored at −80° C. until use. Similar expression and purification protocol was followed for OsD14 protein, except that OsD14 was eluted from Glutathione resins using 0.2 mM reduced Glutathione (Sigma) without cutting GST tag.
ShHTL7 tryptophans were excited at 280 nm and […] emission intensity was measured at 333 nm. ShHTL7 (10 μM) was incubated at various dilutions (0.2, 0.4, 0.8, 1.6, 3.12, 6.25, 12.5, 25 and 50 μM) of GR24 and MPs for 30 minutes at room temperature before measurement. Each concentration point was measured in triplicates. Emitted fluorescence was monitored using spectraMaxi3 (Molecular Devices) plate reader in 96-wells black plates. Changes in tryptophan fluorescence intensity occur due to conformational changes in protein when it is bound to ligand; differences in fluorescence intensity were recorded and analyzed. Data were normalized and dissociation coefficient (Kd) values were calculated by fitting to a binding saturation single-site model with GraphPad (PRISM 6).

ShHTL7 [2] = biological target: T1, ShHTL7; assay: In vitro hydrolysis assay with ShHTL7 (HPLC); format: biochemical; conditions: 10 μM substrate, 37° C.
OsD14 = biological target: T2, OsD14 (Oryza sativa subsp. japonica, UniProt Q10QA5); assay: YLG (Yoshimulactone Green) competitive hydrolysis assay; format: biochemical, rice; conditions: with SE (n=3); read-out: IC50, competitive inhibition of OsD14 mediated YLG hydrolysis
T2 construct: made in house; host or cells: E. coli BL21 (DE3)
T2 sequence (Q10QA5 1-318): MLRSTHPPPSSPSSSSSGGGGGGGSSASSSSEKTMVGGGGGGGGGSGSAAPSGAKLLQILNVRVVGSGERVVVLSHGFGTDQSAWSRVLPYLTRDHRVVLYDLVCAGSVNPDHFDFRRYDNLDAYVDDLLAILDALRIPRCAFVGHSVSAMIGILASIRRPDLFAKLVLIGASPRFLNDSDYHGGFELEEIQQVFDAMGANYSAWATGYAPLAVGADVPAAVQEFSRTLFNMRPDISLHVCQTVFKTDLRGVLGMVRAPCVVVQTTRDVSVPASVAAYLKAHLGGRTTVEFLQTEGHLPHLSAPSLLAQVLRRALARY
From the text: as §1
In vitro YLG hydrolysis assays were performed as described by Tsuchiya et al., 2015. Hydrolysis assays were carried out using 0.15 μM of recombinant protein OsD14 in a reaction buffer (100 mM PBS buffer, pH 7.3) with 0.1% dimethylsulfoxide (DMSO) at a 300 μl volume on a 96-well black plate (Thermo). For competitive assays, (±) GR24 and (±) MPs at range between 0.03 to 10 μM (or 100 μM) were co-incubated with 0.3 μM of YLG and reacted at 30° C. incubator for 15 min. Fluorescent intensity was measured with excitation at 485 nm and detected at 535 nm. IC50 values were calculated online (http://www.ic50.tk/index.html). Later, values were converted to the existing conditions when treated by 1.0 μM of recombinant proteins.

rice leaf segments = assay: Dark-induced leaf senescence of rice leaf segments; format: in vivo, O. sativa, var. Shiokari
Method: One week old rice (O. sativa, var. Shiokari) seedlings were established as mentioned above. Uniform seedlings were transferred to 50 ml tubes containing half strength Hoaglands nutrient solution for 7 days and grown in an incubator under white fluorescent light (130-180 μM m^−2 s^−1) with 16 h:8 h (L/D) at 28° C. for one week. Leaf segments of 2 cm were cut from middle part of third leaves of rice plants. Each segment was put in a well (in 24-well plates) containing 2 ml of 2.5 mM MES buffer with 0.05% Tween-20, and incubated at 30° C. in the dark for 7 days. After application of MPs, color change, chlorophyll content, ion leakage and gene expression were monitored daily for 7 days.

rice d10 mutant = assay: Rice micro tillering bioassay, d10 mutant; format: in vivo; conditions: 2.5 μM, hydroponic culture; untreated (Mock) 4 tillers per plant
Method: (§2) Rice seeds (WT, d3, d10) were surface-sterilized by washing with 70% ethanol for 1 min and then with 2.5% sodium hypochlorite for 15 min. Seeds were then rinsed thoroughly with sterile MilliQ water and incubated in water for 2 days at 30° C. in the dark. Pre-germinated seeds were transferred to filter papers containing ½ strength MS medium in 90 mm petri dishes and incubated at 30° C. under fluorescent white light (130-180 μM m^−2 s^−1) for one week. Seven day-old seedlings were transferred to 50 ml falcon tubes (one seedling per tube) containing modified half-strength Hoagland nutrient solution and grown in greenhouse. Plants were treated with MPs at 2.5 μM-2.5×10-7 μM, using GR24 as positive control. The compounds were applied six times, twice a week. Number of tillers per plant, plant height and fresh biomass were measured at final harvest.
Statistical analyses were carried out using statistical software package R (version 3.2.2). Dose-response curves and Half Maximum Effective Concentrations (EC50) were calculated to determine optimum amount of MPs. Synthetic strigolactone analog GR24 was used as reference to estimate efficacy of selected compounds. EC50 and estimated response were calculated using drc package (https://cran.r390 project.org/web/packages/drc/) with a Four Parameter Logistic Curve (Dose Response Curve) (Ritz and Streibig, 2005).

rice d3 mutant = assay: Rice micro tillering bioassay, SL insensitive d3 mutant; format: in vivo; conditions: 2.5 μM, hydroponic culture
Method: as §2

CC1=CC(Oc2ccc(Br)cc2)OC1=O (stereo not shown) [4-Br debranone]
Activity in inducing parasite seed germination (parasite seed): moderate activity in inducing seed germination

COC(=O)/C(=C/O[C@H]1C=C(C)C(=O)O1)N1C(=O)c2ccccc2C1=O [Nijmegen-1]
Result of suicidal germination field trial (Orobanche ramosa): very promising results
Activity in S. hermonthica seed germination (S. hermonthica): weak germination response
EC50 relative to GR24, orders of magnitude higher (S. hermonthica): 3 orders of magnitude
Induction of seed germination in P. ramosa (P. ramosa): potent inducer

CC1=C[C@H](O/C=C2/C(=O)O[C@@H]3c4ccccc4C[C@H]23)OC1=O [GR24, reference compound]
Kd (ShHTL7 [1]): 0.44 ± 0.21 µM
Hydrolysis rate by ShHTL7 (ShHTL7 [2]): followed by MP7, GR24
IC50 (OsD14): 5.68 ± 0.183 µM
Transcript levels of Senescence Associated Genes Osl20 and Osl295 (rice leaf segments; after 5 days of treatment): striking increase in their transcripts
Change in leaf color, time relative to control (rice leaf segments; dark, leaf segments): about two days earlier than the control
Change in leaf color, day observed (rice leaf segments; dark, leaf segments monitored 7 days): already on the third day after treatment
Ion leakage compared to the control (rice leaf segments; first five days): did not detect a difference
Ion leakage compared to the control (rice leaf segments; sixth and seventh day): striking increase
Chlorophyll content (rice leaf segments; third day): clear reduction
Number of tillers per plant, d10 mutant (rice d10 mutant): 1 tiller per plant
High-tillering phenotype of d3 mutant (tillers per plant) (rice d3 mutant): neither MPs nor GR24 could restore the high-tillering phenotype
